Test results from the supplement of paper PMC10627819.
In brackets after ≈: the same amount, converted by molar mass.

Columns and labels:
B. subtilis 168 [1] = test system: B. subtilis 168
S. aureus DSM 20231 [2] = test system: S. aureus DSM 20231
S. aureus Newman [3] = test system: S. aureus Newman
S. pneumoniae D39V [4] = test system: S. pneumoniae D39V
B. subtilis 168 [5] = assay: fitness (endpoint OD595 vs no drug) (fraction); higher = more growth
Procedure, shortened: (§1)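 Bacterial fitness was scored as optical density at the stationary-phase transition relative to the robust mean of no-drug control wells. Scores are capped at 1. The growth data were OD595 readings every 30 min for 14 h at 37 °C, background-subtracted against the first reading, from 384-well plates inoculated at OD595 0.01 in TSB, LB Lennox or CY.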

S. aureus DSM 20231 [6] = assay: as above
Procedure, shortened: as §1

S. aureus Newman [7] = assay: as above
Procedure, shortened: as §1

S. pneumoniae D39V [8] = assay: as above
Procedure, shortened: as §1

CC[C@H]1OC(=O)[C@H](C)[C@@H](O[C@H]2C[C@@](C)(OC)[C@@H](O)[C@H](C)O2)[C@H](C)[C@@H](O[C@@H]2O[C@H](C)C[C@H](N(C)C)[C@H]2O)[C@](C)(O)C[C@@H](C)CN(C)[C@H](C)[C@@H](O)[C@]1(C)O [Azithromycin]
Details	MIC [µg/mL]
B. subtilis 168 [1]	2 (≈ 2.67 µM)
S. aureus DSM 20231 [2]	0.556 (≈ 0.742 µM)
S. aureus Newman [3]	0.5 (≈ 0.668 µM)
S. pneumoniae D39V [4]	2 (≈ 2.67 µM)

fitness
Details	0.125 µg/mL	0.25 µg/mL	0.5 µg/mL	1 µg/mL	2 µg/mL
B. subtilis 168 [5]	–	0.891	0.869	0.699	0.0641
S. aureus DSM 20231 [6]	0.994	0.914	0.508	0.834	–
S. aureus Newman [7]	0.93	0.901	0.706	–	–
S. pneumoniae D39V [8]	–	0.524	0.323	0.096	–

CC1=C(C(=O)O)N2C(=O)[C@@H](NC(=O)[C@H](N)c3ccccc3)[C@H]2SC1 [Cephalexin]
Details	MIC [µg/mL]
S. aureus DSM 20231 [2]	4 (≈ 11.5 µM)
S. aureus Newman [3]	4 (≈ 11.5 µM)
S. pneumoniae D39V [4]	4 (≈ 11.5 µM)

fitness
Details	0.125 µg/mL	0.25 µg/mL	0.5 µg/mL	1 µg/mL	2 µg/mL	4 µg/mL
B. subtilis 168 [5]	0.925	0.917	0.937	0.939	–	–
S. aureus Newman [7]	–	0.987	≥ 1	≥ 1	≥ 1	–
S. pneumoniae D39V [8]	–	–	–	0.649	0.29	0.0479

O=C(O)[C@H]1/C(=C/CO)O[C@@H]2CC(=O)N21 [Clavulanic acid]
Details	MIC [µg/mL]
B. subtilis 168 [1]	8 (≈ 40.2 µM)
S. aureus DSM 20231 [2]	0.5 (≈ 2.51 µM)
S. aureus Newman [3]	0.5 (≈ 2.51 µM)
S. pneumoniae D39V [4]	2 (≈ 10 µM)

fitness
Details	0.5 µg/mL	1 µg/mL	1.5 µg/mL	2 µg/mL	3 µg/mL	6 µg/mL
B. subtilis 168 [5]	–	–	0.899	–	0.887	0.769
S. pneumoniae D39V [8]	0.966	0.939	–	0.867	–	–

CNC(C)C1CCC(N)C(OC2C(N)CC(N)C(OC3OCC(C)(O)C(NC)C3O)C2O)O1 (stereo unspecified) [Gentamicin]
main component drawn
Details	MIC [µg/mL]
B. subtilis 168 [1]	0.25 (≈ 0.523 µM)
S. aureus DSM 20231 [2]	2 (≈ 4.19 µM)
S. aureus Newman [3]	2 (≈ 4.19 µM)
S. pneumoniae D39V [4]	18 (≈ 37.7 µM)

main component drawn
Details	fitness
B. subtilis 168 [5], 0.0625 µg/mL	0.887
B. subtilis 168 [5], 0.125 µg/mL	0.131
B. subtilis 168 [5], 0.25 µg/mL	0.0542
S. aureus DSM 20231 [6], 0.5 µg/mL	≥ 1
S. aureus DSM 20231 [6], 1 µg/mL	≥ 1
S. aureus DSM 20231 [6], 2 µg/mL	0.984
S. aureus DSM 20231 [6], 4 µg/mL	0.129
S. aureus Newman [7], 0.375 µg/mL	≥ 1
S. aureus Newman [7], 0.5 µg/mL	0.996
S. aureus Newman [7], 0.75 µg/mL	≥ 1
S. aureus Newman [7], 1 µg/mL	0.992
S. aureus Newman [7], 1.5 µg/mL	0.583
S. aureus Newman [7], 2 µg/mL	0.999
S. aureus Newman [7], 4 µg/mL	0.302
S. pneumoniae D39V [8], 2 µg/mL	1
S. pneumoniae D39V [8], 4 µg/mL	0.986
S. pneumoniae D39V [8], 8 µg/mL	0.962

Clc1ccc(COC(Cn2ccnc2)c2ccc(Cl)cc2Cl)c(Cl)c1 (stereo unspecified) [Miconazole]
Details	MIC [µg/mL]
B. subtilis 168 [1]	5 (≈ 12 µM)
S. aureus DSM 20231 [2]	5 (≈ 12 µM)
S. aureus Newman [3]	3 (≈ 7.21 µM)
S. pneumoniae D39V [4]	10 (≈ 24 µM)

S. pneumoniae D39V [8]
Details	fitness
1.25 µg/mL	0.907
2.5 µg/mL	0.893
5 µg/mL	0.926

Cc1onc(-c2ccccc2)c1C(=O)N[C@@H]1C(=O)N2[C@@H]1SC(C)(C)[C@@H]2C(=O)O [Oxacillin]
Details	MIC [µg/mL]
S. aureus DSM 20231 [2]	0.069 (≈ 0.172 µM)
S. aureus Newman [3]	0.069 (≈ 0.172 µM)
S. pneumoniae D39V [4]	0.031 (≈ 0.0772 µM)

Details	fitness
B. subtilis 168 [5], 0.002 µg/mL	0.925
B. subtilis 168 [5], 0.004 µg/mL	0.936
B. subtilis 168 [5], 0.0078 µg/mL	0.941
B. subtilis 168 [5], 0.008 µg/mL	0.962
B. subtilis 168 [5], 0.0155 µg/mL	0.952
B. subtilis 168 [5], 0.031 µg/mL	0.902
S. aureus DSM 20231 [6], 0.0156 µg/mL	0.972
S. aureus DSM 20231 [6], 0.0312 µg/mL	0.889
S. aureus DSM 20231 [6], 0.0625 µg/mL	0.621
S. aureus Newman [7], 0.0156 µg/mL	0.843
S. aureus Newman [7], 0.0312 µg/mL	0.759
S. aureus Newman [7], 0.0625 µg/mL	0.608
S. pneumoniae D39V [8], 0.005 µg/mL	≥ 1
S. pneumoniae D39V [8], 0.01 µg/mL	0.996
S. pneumoniae D39V [8], 0.02 µg/mL	0.986
S. pneumoniae D39V [8], 0.04 µg/mL	0.515

C[n+]1ccc(-c2cc[n+](C)cc2)cc1 [Paraquat]
Details	MIC [µg/mL]
B. subtilis 168 [1]	50
S. aureus DSM 20231 [2]	50
S. aureus Newman [3]	50
S. pneumoniae D39V [4]	10

fitness
Details	1.25 µg/mL	1.5 µg/mL	2.5 µg/mL	3 µg/mL	5 µg/mL	6 µg/mL
B. subtilis 168 [5]	0.912	–	0.899	–	0.848	–
S. aureus DSM 20231 [6]	≥ 1	–	0.99	–	0.988	–
S. aureus Newman [7]	0.986	–	0.944	–	0.94	–
S. pneumoniae D39V [8]	–	0.992	–	0.993	–	0.965

Cn1c2cccc(=O)c-2nc2ccccc21 [Pyocyanin]
Details	MIC [µg/mL]
B. subtilis 168 [1]	5 (≈ 23.8 µM)
S. aureus DSM 20231 [2]	5 (≈ 23.8 µM)
S. aureus Newman [3]	5 (≈ 23.8 µM)
S. pneumoniae D39V [4]	1.44 (≈ 6.85 µM)

fitness
Details	0.325 µg/mL	0.65 µg/mL	1.25 µg/mL	1.3 µg/mL	2.5 µg/mL	5 µg/mL
B. subtilis 168 [5]	–	–	0.886	–	0.841	0.708
S. aureus DSM 20231 [6]	–	–	0.997	–	0.892	0.59
S. aureus Newman [7]	–	–	0.896	–	0.843	0.399
S. pneumoniae D39V [8]	≥ 1	0.991	–	0.835	–	–

CN(N=O)C(=O)N[C@@H](C=O)[C@@H](O)[C@H](O)[C@H](O)CO [Streptozotocin]
Details	MIC [µg/mL]
B. subtilis 168 [1]	0.7 (≈ 2.64 µM)
S. aureus DSM 20231 [2]	0.8 (≈ 3.02 µM)
S. aureus Newman [3]	0.8 (≈ 3.02 µM)
S. pneumoniae D39V [4]	5 (≈ 18.9 µM)

fitness
Details	0.15 µg/mL	0.3 µg/mL	0.6 µg/mL	1.2 µg/mL	2.4 µg/mL	4.8 µg/mL
B. subtilis 168 [5]	0.987	0.961	0.99	–	–	–
S. aureus DSM 20231 [6]	0.891	0.843	0.756	–	–	–
S. aureus Newman [7]	0.852	0.735	0.524	–	–	–
S. pneumoniae D39V [8]	–	–	–	0.96	0.936	0.975

Cc1cc(NS(=O)(=O)c2ccc(N)cc2)no1 [Sulfamethoxazol]
Details	MIC [µg/mL]
B. subtilis 168 [1]	> 16
S. aureus DSM 20231 [2]	> 16
S. aureus Newman [3]	> 16
S. pneumoniae D39V [4]	16 (≈ 63.2 µM)

fitness
Details	B. subtilis 168 [5]	S. aureus DSM 20231 [6]	S. aureus Newman [7]	S. pneumoniae D39V [8]
1 µg/mL	0.975	0.976	0.968	0.954
2 µg/mL	0.948	0.946	0.984	0.984
4 µg/mL	0.915	0.943	0.978	0.987

CC[C@H]1OC(=O)[C@H](C)C(=O)[C@H](C)[C@@H](O[C@@H]2O[C@H](C)C[C@H](N(C)C)[C@H]2O)[C@](C)(OC)C[C@@H](C)C(=O)[C@H](C)[C@H]2N(CCCCn3cnc(-c4cccnc4)c3)C(=O)O[C@]12C [Telithromycin]
Details	MIC [µg/mL]
S. aureus DSM 20231 [2]	0.15 (≈ 0.185 µM)
S. aureus Newman [3]	0.15 (≈ 0.185 µM)
S. pneumoniae D39V [4]	0.04 (≈ 0.0493 µM)

CC1=C\[C@@H](O)CC(=O)Cc2nc(co2)C(=O)N2CCC=C2C(=O)O[C@H](C(C)C)[C@H](C)/C=C/C(=O)NC\C=C\1 [Virginiamycin M1]
Details	MIC [µg/mL]
B. subtilis 168 [1]	0.5 (≈ 0.951 µM)
S. aureus Newman [3]	2 (≈ 3.81 µM)
S. pneumoniae D39V [4]	4 (≈ 7.61 µM)

fitness
Details	0.0625 µg/mL	0.125 µg/mL	0.25 µg/mL	0.5 µg/mL	1 µg/mL	2 µg/mL
B. subtilis 168 [5]	0.956	0.943	0.959	–	–	–
S. aureus DSM 20231 [6]	0.994	≥ 1	≥ 1	–	–	–
S. aureus Newman [7]	0.989	1	≥ 1	–	–	–
S. pneumoniae D39V [8]	–	–	–	≥ 1	0.997	0.994
